Data set [1] concerns cisplatin-sensitive cells (A2780). Description: MTT cytotoxicity assay, A2780 cells. The format is cell-based, human. (In general: Formazan colour is commonly taken as a measure of viable cells.)
The test system of data set [2] is confluent A549 cells. Description: MTT cytotoxicity assay, confluent A549 cells. Conditions: for IC50: Table 2, confluent cells, 72 h exposure, read-out: IC50 A549 (confluent) lung carcinoma; for IC50 higher in confluent A549 cells than in A549 cells in log phase growth: confluent versus log phase. The format is cell-based, human.
Data set [3] is described as follows: Variable-temperature 1H NMR stability in DMSO. The following applies: intact up to 75° C. It counts as physicochemical. Here is the method: Two rhenium(v) oxo complexes (1 and 2; see Scheme 1) were prepared by reacting ReOCI3)2 with […] of the corresponding bidentate ligand in methanol. The complexes were isolated in reasonable yields as pale green solids and fully characterized by NMR and IR spectroscopy, ESI-MS spectrometry, and elemental analysis.
Synthesis and Characterization. The rhenium(V) oxo complexes 1 and 2 (see Scheme 1) were prepared by the reaction of [ReOCl3(PPh3)2] with 1.5 equiv of the corresponding bidentate ligand in methanol (Scheme 1). The complexes were isolated in reasonable yields as pale green solids and fully characterized by NMR and IR spectroscopy and ESI mass spectrometry. The purity of the complexes was confirmed by elemental analysis.

Data set [4] has as its system A549 cells. Description: Intracellular ROS assay (DCFH-DA, flow cytometry). It counts as cell-based, human. Conditions: for induced ROS production in the presence of necrostatin-1: 20 μM for 12 h with necrostatin-1 60 μM; for intracellular ROS versus untreated control cells: 1, 2, shikonin 20 μM for 12 h, H2O2 1 mM for 1 h. Here is the method: Characterization of Necroptotic Features. Having established that necrosome formation is a determinant of 1 and 2 activity, additional studies were performed to understand the cascade of events leading from necrosome formation to cell death. Necrosomes generate abnormally high levels of mitochondrial ROS, leading to ATP depletion and eventual degradation of the mitochondrial membrane potential. With this fact in mind, intracellular ROS production was quantified by flow cytometry using 6-carboxy-2′,7′-dichlorodihydrofluorescein diacetate (DCFH-DA), a well-established ROS indicator.
In FIG. 2: (A) Representative histograms displaying the green fluorescence emitted by DCFH-DA-stained A549 cells (i) and A549 cells treated with 1(20 μM for 12 h) (iii) or 1 (20 μM for 12 h) with nectrostatin-1 (60 μM for 12 h) (ii). (B) Representative histograms displaying the green fluorescence emitted by DCFH-DA-stained A549 cells (i) and A549 cells treated with 2 (20 μM for 12 h) (iii) or 2 (20 μM for 12 h) with nectrostatin-1 (60 μM for 12 h) (ii). (C) Representative histograms displaying the green fluorescence emitted by DCFH-DA-stained A549 cells (i) and A549 cells treated withH2O2 (1mM for 1 h) (iii). (D) Representative histograms displaying the green fluorescence emitted by DCFH-DA-stained A549 cells (i) and A549 cells treated with shikonin (20 μM for 12 h) (iii).
Intracellular ROS Assay. Untreated and treated A549 cells (1.5×10^6 cells/well) grown in six-well plates were incubated with 6-carboxy-2′,7′-dichlorodihydrofluorescein diacetate (20 μM) for 30 min. The cells were then washed with PBS (1 mL x 3), harvested, and analyzed by using a FACSCalibur-HTS flow cytometer (BD Biosciences) (20 000 events per sample were acquired). The FL1 channel was used to assess intracellular ROS levels. Cell populations were analyzed using the FlowJo software (Tree Star).
Background: In flow cytometry, cells or beads pass a laser one at a time.

Data set [5] deals with A549 cells. Description: Cell cycle analysis, DNA-flow cytometry. It counts as cell-based, human. Conditions: 2 μM. As for the experimental part:
Cell Cycle Analysis. To gain a more complete understanding of the cellular response evoked, DNA-flow cytometric studies were conducted to determine the effect of 1 and 2 on the cell cycle. A549 cells were treated with 1 or 2 (2 μM), and the cell cycle was determined over the course of 72 h. […] Upon further incubation (72 h), large populations of cell debris were detected (32%), indicative of cell death. […] G1-phase cell cycle arrest followed by immediate cell death is characteristic of programmed necrosis.
Cell Cycle. In order to monitor the cell cycle, flow cytometry studies were carried out. A549 cells (1.5×10^6 cells/well) grown in six-well plates were incubated with and without the test compounds for 24, 48, and 72 h at 37° C. Cells were harvested from adherent cultures by trypsinization and combined with all detached cells from the incubation medium to assess total cell viability. Following centrifugation at 1000 rpm for 5 min, cells were washed with PBS and then fixed with 70% ethanol in PBS. Fixed cells were collected by centrifugation at 2500 rpm for 3 min, washed with PBS, and centrifuged as before. Cellular pellets were resuspended in 50 μg/mL PI (Sigma) in PBS for nucleic acids staining and treated with 100 µg/mL RNaseA (Sigma). DNA content was measured on a FACSCalibur-HTS flow cytometer (BD Biosciences) using laser excitation at 488 nm, and 20 000 events per sample were acquired. Cell cycle profiles were analyzed using the ModFit software.

Data set [6] deals with C57BL/6 mice. Description: In vivo acute toxicity in mice. Conditions: single i.p. doses 3-36 mg/kg in saline, monitored 6 days. Here is the method: In Vivo Toxicity and Stability in Whole Human Blood. Given the impressive in vitro data acquired for 1 and 2, an in vivo study was conducted with C57BL/6 mice to determine acute toxicity and possible side effects. Single doses of 1 and 2 (3, 7, 11,15, 20, and 36 mg/kg) in saline were administered by intraperitoneal injection. The mice were then monitored for signs of pain, distress, and weight loss for 6 days post-treatment. […] The pharmacological toxicity profile of 1 and 2 is very appealing in terms of further preclinical studies.

Where [7] appears, read: Table 1, 72 h exposure, ± standard deviation, read-out: IC50 A2780 ovarian carcinoma.
[8] abbreviates: Table A, average of three independent determinations, read-out: IC50 A2780 (ovarian).

Read-outs that look alike come from different tables or passages of the source.

Usually IC50 stands for the concentration needed to halve the response being measured. For the molecule `C[O][Re](=[O])([Cl])[Cl].c1ccc(-c2ccnc3c2ccc2c(-c4ccccc4)ccnc23)cc1` [Compound 1, [ReO(OMe)(4,7-diphenyl-1,10-phenanthroline)-Cl2]], the IC50 in data set [1] (setting [7]) came to 670 ± 40 nM. The IC50 in data set [1] (setting [8]) came to 670 ± 40 nM. Further, in data set [2], the IC50 worked out at 8610 ± 749 nM and the “IC50 higher in confluent A549 cells than in A549 cells in log phase growth” value is 40 fold. In data set [3], the “stability in DMSO” value is “stable”. In data set [4], the “induced ROS production in the presence of necrostatin-1” value was “attenuated” and the “intracellular ROS versus untreated control cells” value is recorded as “markedly higher levels of ROS”. In addition, in data set [5], the “effect on cell cycle after 24 h” value is listed as “stalled the cell cycle at the G1 phase” and the “population of cell debris, 72 h” value is 32%. The “effect on cell cycle after 48 h” value in data set [5] (48 h) is recorded as “remained stalled at the G1 phase”. For the same molecule, in data set [6], the “acute toxicity in mice, gauged by weight loss” value is “no toxicity”.

Turning to `C[O][Re-2]1(=[O])([Cl])([Cl])[n+]2cc(C)c(C)c3ccc4c(C)c(C)c[n+]1c4c32` [Compound 2, [ReO(OMe)(3,4,7,8-tetramethyl-1,10-phenanthroline)Cl2]], in data set [1] (setting [7]), the IC50 came to 150 ± 10 nM. In addition, the IC50 in data set [1] (setting [8]) was 150 ± 10 nM. For the same molecule, in data set [2], the IC50 turned out to be 5240 ± 1990 nM and the “IC50 higher in confluent A549 cells than in A549 cells in log phase growth” value is reported as 40 fold. For the same molecule, in data set [3], the “stability in DMSO” value is “stable”. Besides, in data set [4], the “induced ROS production in the presence of necrostatin-1” value is “attenuated” and the “intracellular ROS versus untreated control cells” value was “markedly higher levels of ROS”. For the same molecule, in data set [5], the “effect on cell cycle after 24 h” value is “stalled the cell cycle at the G1 phase” and the “population of cell debris, 72 h” value was 38%. Further, in data set [5] (48 h), the “population of cell debris, 48 h” value turned out to be 26%. Also, the “acute toxicity in mice, gauged by weight loss” value in data set [6] was “no toxicity”.

(Values after US20150299233A1, “COMPOSITIONS AND METHODS COMPRISING RHENIUM FOR THE TREATMENT OF CANCERS” (Massachusetts Institute of Technology, priority 2014, published 2015).)
